Consider 3 compounds from publication PMC5119973 (Cancer Medicine, 2016).

What is called Kd is the free concentration of one partner at which half of the binding sites on the other are occupied at equilibrium, for simple one-to-one binding. High values mean weaker binding, low ones tighter binding. A word on the IC50: it is the concentration that inhibits the measured activity by half.

Structures are written as SMILES.

The target of one assay is T1, KIT^L576P (Homo sapiens, UniProt P10721, L576P).
T1 construct: purchased DiscoveRx
T1 sequence (P10721 26-976 L576P): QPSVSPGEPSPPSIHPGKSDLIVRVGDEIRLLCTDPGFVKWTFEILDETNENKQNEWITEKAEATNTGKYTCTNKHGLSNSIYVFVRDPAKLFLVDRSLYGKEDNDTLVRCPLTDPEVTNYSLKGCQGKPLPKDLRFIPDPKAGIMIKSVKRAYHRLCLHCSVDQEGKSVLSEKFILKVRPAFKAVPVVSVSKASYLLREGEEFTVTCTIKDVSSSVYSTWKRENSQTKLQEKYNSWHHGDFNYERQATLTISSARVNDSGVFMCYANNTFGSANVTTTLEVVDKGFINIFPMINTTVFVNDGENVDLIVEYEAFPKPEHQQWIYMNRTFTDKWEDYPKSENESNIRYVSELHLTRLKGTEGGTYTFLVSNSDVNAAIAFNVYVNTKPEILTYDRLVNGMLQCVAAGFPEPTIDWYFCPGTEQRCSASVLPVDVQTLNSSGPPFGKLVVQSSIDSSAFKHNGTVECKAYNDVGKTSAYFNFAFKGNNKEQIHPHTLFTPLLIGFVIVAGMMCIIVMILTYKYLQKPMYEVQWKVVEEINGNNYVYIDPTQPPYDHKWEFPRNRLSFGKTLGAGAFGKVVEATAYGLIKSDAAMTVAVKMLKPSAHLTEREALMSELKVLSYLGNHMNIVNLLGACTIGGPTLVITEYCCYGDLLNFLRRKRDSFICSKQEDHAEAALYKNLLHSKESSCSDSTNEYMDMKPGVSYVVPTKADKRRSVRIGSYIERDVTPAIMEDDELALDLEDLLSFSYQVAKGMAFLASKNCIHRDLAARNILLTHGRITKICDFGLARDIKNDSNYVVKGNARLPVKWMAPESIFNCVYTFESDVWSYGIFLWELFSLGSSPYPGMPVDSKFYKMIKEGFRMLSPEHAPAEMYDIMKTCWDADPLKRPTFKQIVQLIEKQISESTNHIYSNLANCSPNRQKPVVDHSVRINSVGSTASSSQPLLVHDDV
The assay can be described thus: KINOMEscan active-site competitive binding assay.

The next assay deals with T2, KIT^V559D,V654A (Homo sapiens, UniProt P10721, V559D/V654A).
T2 construct: purchased DiscoveRx (KINOMEscan service)
T2 sequence (P10721 26-976 V559D/V654A): as the sequence (P10721 26-976 L576P) above, with V534D, P551L, V629A counted along it
The assay can be described thus: KINOMEscan active-site competitive binding assay.

A further assay concerns the target T3, FLT3^D835H (Homo sapiens, UniProt P36888, D835H).
T3 construct: purchased DiscoveRx
The assay can be described thus: KINOMEscan active-site competitive binding assay.

The next assay concerns the target RAFs. As to the kind of experiment: KINOMEscan active-site competitive binding assay. To be noted: range among family members.
In the next assay the target is T4, FLT3^R834Q (Homo sapiens, UniProt P36888, R834Q).
T4 construct: purchased DiscoveRx
As to the kind of experiment: KINOMEscan active-site competitive binding assay.

Another assay addresses T5, FLT1 (Homo sapiens, UniProt P17948).
T5 construct: purchased DiscoveRx (KINOMEscan service)
The assay can be described thus: KINOMEscan active-site competitive binding assay. To be noted: slash = two separate measurements.

The next assay deals with VEGFR2 (Homo sapiens, UniProt P35968). The assay can be described thus: VEGFR2 autophosphorylation in HuVECs stimulated with VEGF‐A (western blot). It is filed as cell-based. The arrangement: VEGFR2 autophosphorylation in HuVECs; endogenous in cells; host or cells: HuVEC. To be noted: VEGF‐A stimulation, 0.1% bovine serum albumin, estimated from western blots, read-out: Mean ± SD IC50. As for the experimental part:
Endothelial cell assays were performed as described previously 14. In brief, HuVECs and HuLECs were grown in EBM‐2 supplemented with growth factors (Lonza, Walkersville, MD). After serum starvation for 6 h in EBM‐2 containing 0.1% BSA, 2 × 10^5 cells were treated with various concentrations of each compound for 1 h before stimulation with VEGF‐A (50 ng/mL) or VEGF‐C (200 ng/mL) for 10 min. Cells were lysed, and total cell lysates were analyzed for inhibition of phosphorylation by western blot, using antibodies against total and phosphorylated VEGFR2 and VEGFR3, ERK1/2, and AKT. Signals were detected by […] luminescence (GE Healthcare Biosciences; Pittsburgh, PA).

The target of a further assay is T6, RET^V804L (Homo sapiens, UniProt P07949, V804L).
T6 construct: purchased DiscoveRx (KINOMEscan service)
T6 sequence (P07949 29-1114 V804L): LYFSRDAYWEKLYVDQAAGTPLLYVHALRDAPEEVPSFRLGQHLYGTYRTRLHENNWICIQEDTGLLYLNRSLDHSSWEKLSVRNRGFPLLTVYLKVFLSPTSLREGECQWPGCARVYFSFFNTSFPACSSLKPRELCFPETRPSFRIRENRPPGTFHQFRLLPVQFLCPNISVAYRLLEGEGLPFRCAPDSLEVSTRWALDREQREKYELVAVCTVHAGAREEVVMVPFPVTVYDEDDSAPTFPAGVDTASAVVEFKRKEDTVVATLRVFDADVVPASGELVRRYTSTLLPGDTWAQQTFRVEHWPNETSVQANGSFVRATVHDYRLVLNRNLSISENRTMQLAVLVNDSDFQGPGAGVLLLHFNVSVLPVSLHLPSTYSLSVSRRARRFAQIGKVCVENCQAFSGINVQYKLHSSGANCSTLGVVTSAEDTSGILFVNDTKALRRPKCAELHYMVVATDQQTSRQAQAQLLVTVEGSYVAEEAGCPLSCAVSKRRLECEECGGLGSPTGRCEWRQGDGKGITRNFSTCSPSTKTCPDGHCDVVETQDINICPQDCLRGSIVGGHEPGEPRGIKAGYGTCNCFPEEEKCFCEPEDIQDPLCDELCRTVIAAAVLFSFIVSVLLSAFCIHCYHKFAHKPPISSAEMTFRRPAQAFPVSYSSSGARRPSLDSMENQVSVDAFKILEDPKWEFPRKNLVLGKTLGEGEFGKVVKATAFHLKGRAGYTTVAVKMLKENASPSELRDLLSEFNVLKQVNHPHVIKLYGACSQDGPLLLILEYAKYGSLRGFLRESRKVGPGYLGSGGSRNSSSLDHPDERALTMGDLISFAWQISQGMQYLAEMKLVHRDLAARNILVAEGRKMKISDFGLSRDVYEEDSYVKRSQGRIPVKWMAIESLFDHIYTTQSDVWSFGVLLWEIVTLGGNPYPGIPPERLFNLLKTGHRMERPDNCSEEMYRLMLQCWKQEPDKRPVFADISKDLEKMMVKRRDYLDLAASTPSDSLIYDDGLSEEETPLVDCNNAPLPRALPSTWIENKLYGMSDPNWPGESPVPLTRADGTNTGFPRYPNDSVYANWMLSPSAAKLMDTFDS
As to the kind of experiment: KINOMEscan active-site competitive binding assay.

The next assay concerns the target T7, RET^M918T (Homo sapiens, UniProt P07949, M918T).
T7 construct: purchased DiscoveRx (KINOMEscan service)
As to the kind of experiment: KINOMEscan active-site competitive binding assay.

The target in the next assay is T8, PDGFRA (Homo sapiens, UniProt P16234).
T8 construct: purchased DiscoveRx
The assay can be described thus: KINOMEscan active-site competitive binding assay. To be noted: slash = two separate measurements.

Another assay concerns the target T9, KIT^K642E (Homo sapiens, UniProt P10721, K642E).
T9 construct: KIT^K642E assays were performed in a GIST cell line (GIST882); endogenous in cells; host or cells: GIST882
As to the kind of experiment: Cellular kinase phosphorylation assay, GIST882/KIT^K642E. It is filed as cell-based. As to conditions: GIST882/KIT^K642E cells; 0.1% bovine serum albumin; brackets = number of experiments; read-out: Mean ± SD IC50.

A further assay deals with BRAF^V600E (Homo sapiens, UniProt P15056, V600E). The assay can be described thus: KINOMEscan active-site competitive binding assay.
BRAF^V600E, sequence (P15056 whole entry V600E): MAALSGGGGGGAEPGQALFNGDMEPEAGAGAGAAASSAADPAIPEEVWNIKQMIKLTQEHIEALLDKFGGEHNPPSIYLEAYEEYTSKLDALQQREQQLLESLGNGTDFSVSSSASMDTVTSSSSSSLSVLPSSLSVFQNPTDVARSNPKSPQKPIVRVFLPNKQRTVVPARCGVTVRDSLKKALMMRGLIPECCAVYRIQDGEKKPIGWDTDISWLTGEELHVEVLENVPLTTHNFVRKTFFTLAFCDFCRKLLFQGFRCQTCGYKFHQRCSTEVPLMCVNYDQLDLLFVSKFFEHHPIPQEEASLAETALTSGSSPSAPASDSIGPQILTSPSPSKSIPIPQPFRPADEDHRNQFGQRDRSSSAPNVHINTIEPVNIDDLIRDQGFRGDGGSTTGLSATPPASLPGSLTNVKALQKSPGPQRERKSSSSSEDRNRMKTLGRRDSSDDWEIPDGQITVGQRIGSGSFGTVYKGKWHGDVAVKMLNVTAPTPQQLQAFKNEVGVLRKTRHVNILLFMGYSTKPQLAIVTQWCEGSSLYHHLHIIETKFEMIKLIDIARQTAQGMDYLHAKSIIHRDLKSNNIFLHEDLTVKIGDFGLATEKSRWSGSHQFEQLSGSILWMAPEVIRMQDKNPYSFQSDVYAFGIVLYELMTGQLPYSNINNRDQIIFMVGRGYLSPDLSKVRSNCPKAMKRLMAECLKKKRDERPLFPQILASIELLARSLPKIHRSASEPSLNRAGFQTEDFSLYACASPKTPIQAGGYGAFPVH
For a further assay, the target named is T10, FLT3^K663Q (Homo sapiens, UniProt P36888, K663Q).
T10 construct: purchased DiscoveRx
The assay can be described thus: KINOMEscan active-site competitive binding assay.

In another assay the target is T11, FLT3 (Homo sapiens, UniProt P36888).
T11 construct: purchased DiscoveRx (KINOMEscan service)
The assay can be described thus: KINOMEscan active-site competitive binding assay. As to conditions: slash = two separate measurements.

The test system of a further assay is HuLECs. To be noted: 100 nmol/L, 40 h, regorafenib data taken from ref 14; cited from earlier work.
Assay [1] deals with recombinant murine VEGFR2. As to conditions: cited from earlier work.
For assay [2], the system named is BaF/3 cells expressing an imatinib‐resistant mutant KIT (557‐558del; T670I). The assay can be described thus: In vitro proliferation, BaF/3 cells expressing imatinib‐resistant mutant KIT. It is filed as cell-based. To be noted: unpubl. data.

VEGFR2, sequence (P35968 20-1356): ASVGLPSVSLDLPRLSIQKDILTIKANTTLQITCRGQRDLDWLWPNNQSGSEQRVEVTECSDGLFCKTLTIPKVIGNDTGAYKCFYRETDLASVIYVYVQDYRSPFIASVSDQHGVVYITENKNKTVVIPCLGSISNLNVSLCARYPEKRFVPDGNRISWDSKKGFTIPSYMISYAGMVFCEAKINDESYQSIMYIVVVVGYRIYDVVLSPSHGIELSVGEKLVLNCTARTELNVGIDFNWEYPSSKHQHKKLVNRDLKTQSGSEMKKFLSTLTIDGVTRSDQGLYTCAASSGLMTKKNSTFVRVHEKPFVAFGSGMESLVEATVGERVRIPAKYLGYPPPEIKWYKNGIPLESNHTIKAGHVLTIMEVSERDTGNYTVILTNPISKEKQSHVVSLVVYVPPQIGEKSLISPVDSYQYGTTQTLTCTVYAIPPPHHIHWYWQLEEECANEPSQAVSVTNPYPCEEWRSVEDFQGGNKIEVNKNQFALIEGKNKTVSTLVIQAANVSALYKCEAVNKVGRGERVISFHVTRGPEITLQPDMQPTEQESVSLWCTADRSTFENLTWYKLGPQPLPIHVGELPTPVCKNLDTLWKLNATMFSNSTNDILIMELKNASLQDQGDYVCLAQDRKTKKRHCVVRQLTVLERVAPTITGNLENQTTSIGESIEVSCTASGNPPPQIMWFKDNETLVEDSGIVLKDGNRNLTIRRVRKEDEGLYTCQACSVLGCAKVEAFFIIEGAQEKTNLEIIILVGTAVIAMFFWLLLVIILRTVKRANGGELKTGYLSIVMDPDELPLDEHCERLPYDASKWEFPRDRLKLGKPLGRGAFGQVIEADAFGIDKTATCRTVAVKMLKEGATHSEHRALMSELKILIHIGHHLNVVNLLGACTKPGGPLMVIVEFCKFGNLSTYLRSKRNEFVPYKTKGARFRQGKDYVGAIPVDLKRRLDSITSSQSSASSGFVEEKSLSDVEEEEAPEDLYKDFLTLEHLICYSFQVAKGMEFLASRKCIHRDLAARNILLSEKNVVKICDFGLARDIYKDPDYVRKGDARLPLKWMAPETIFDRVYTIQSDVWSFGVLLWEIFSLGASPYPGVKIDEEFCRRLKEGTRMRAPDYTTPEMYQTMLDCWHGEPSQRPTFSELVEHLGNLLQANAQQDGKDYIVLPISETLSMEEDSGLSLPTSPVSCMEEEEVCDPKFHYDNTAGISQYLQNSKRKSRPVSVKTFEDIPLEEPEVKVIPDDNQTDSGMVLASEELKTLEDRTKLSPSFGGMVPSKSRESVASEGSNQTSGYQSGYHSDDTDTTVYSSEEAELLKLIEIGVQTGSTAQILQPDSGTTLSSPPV
T7 sequence (P07949 29-1114 M918T): as the sequence (P07949 29-1114 V804L) above, with L776V, M890T counted along it
T9 sequence (P10721 26-976 K642E): as the sequence (P10721 26-976 L576P) above, with P551L, K617E counted along it

Turning to `CNC(=O)c1cc(Oc2ccc(NC(=O)Nc3ccc(Cl)c(C(F)(F)F)c3)c(F)c2)cc[n+]1[O-]` [M‐2], the Kd on KIT^L576P was 17 nM; at KIT^V559D,V654A it was 51 nM; on FLT3^D835H it was 120 nM; at RAFs it was 24 to 130 nM; on FLT3^R834Q it was 240 nM; at FLT1 it was 23 nM. Also, the Kd worked out at 13 nM on RET^V804L, 7.4 nM on RET^M918T, 7.3 nM on PDGFRA and 15 nM on BRAF^V600E. The IC50 on VEGFR2 is around 4 nM; at KIT^K642E, 4 ± 2 nM.
For the compound `NC(=O)c1cc(Oc2ccc(NC(=O)Nc3ccc(Cl)c(C(F)(F)F)c3)c(F)c2)cc[n+]1[O-]` [M‐5], the dissociation constant Kd came out at 9.1 nM on KIT^L576P; 5.5 nM at FLT3^K663Q; 42 nM on KIT^V559D,V654A; 270 nM on FLT3^R834Q; 17 nM on FLT1; 15 nM on RET^V804L. Further, the Kd at RET^M918T worked out at 5.8 nM; on FLT3, 2.6 nM; on BRAF^V600E, 11 nM. In addition, the IC50 on VEGFR2 is around 16 nM.
As for `CNC(=O)c1cc(Oc2ccc(NC(=O)Nc3ccc(Cl)c(C(F)(F)F)c3)c(F)c2)ccn1` [Regorafenib, reference compound], the “Inhibition of VEGF‐C‐induced migration” value in the assay with HuLECs is recorded as “inhibited”. Also, the IC50 in assay [1] is around 4 nM. Besides, the Inhibition of proliferation result in assay [2] is recorded as “potent inhibition”.
